Paper PMC11323563, “Multiple levels of transcriptional regulation control glycolate metabolism in Paracoccus denitrificans” (mBio, 2024)

What was measured:
BhcR = target: T1, BhcR (Paracoccus denitrificans, UniProt A1B8Z4); experiment: EMSA of Pbhc DNA-BhcR complex with effector; format: binding; conditions: 0.1-5 mM effector, pH 7.0, 37 °C
T1 construct: full length, pET16b His tag (cutting not mentioned), E. coli BL21 AI; Ni-NTA and size exclusion

[1] = target: T2, MGlcR (MBP-GlcR) (Paracoccus denitrificans DSM 413) (UniProt A1BAC0); experiment: fluorescence polarization
T2 sequence: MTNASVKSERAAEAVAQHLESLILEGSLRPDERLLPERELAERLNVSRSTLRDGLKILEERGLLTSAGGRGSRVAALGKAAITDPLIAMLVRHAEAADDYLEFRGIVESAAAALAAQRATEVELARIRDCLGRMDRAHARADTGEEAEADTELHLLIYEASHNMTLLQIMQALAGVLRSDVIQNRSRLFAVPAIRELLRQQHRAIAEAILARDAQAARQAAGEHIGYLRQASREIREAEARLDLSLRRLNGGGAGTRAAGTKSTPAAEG

[2] = target: BhcR (Paracoccus denitrificans DSM 413) (UniProt A1B8Z4); experiment: EMSA; conditions: EMSA: 20 mM K phosphate pH 7.0, 1 mM DTT, 5 mM MgCl2, 50 mM KCl, 15 ug/mL BSA, 50 ug/mL herring sperm DNA, 5% glycerol, 0.1% Tween20, DNA 0.025 pM, 37 C …
MGlcR = target: T3, MGlcR (Paracoccus denitrificans, UniProt A1BAC0); experiment: fluorescence polarization, effector titration of 6FAM-Pglc-MGlcR complex; conditions: 0.1-100 mM effector, 750 nM MGlcR, 10 nM Pglc; pH 7.5, room temperature; effector decreasing DNA binding
T3 construct: gene Pden_4400; Ni-NTA purified
T3 sequence (A1BAC0 1-269): T2 sequence

GlcR = target: T4, GlcR (Paracoccus denitrificans, UniProt A1BAC0); experiment: EMSA of Pglc DNA-GlcR complex with effector; conditions: 0.5-2 mM effector; pH 7.0, 37 °C; effector decreasing DNA binding
T4 construct: gene Pden_4400; full length, pET16b His tag (cutting not mentioned), E. coli BL21 AI; Ni-NTA and size exclusion
T4 sequence (A1BAC0 1-269): T2 sequence

[3] = target: T5, GlcR (Paracoccus denitrificans DSM 413) (UniProt A1BAC0); experiment: EMSA; conditions: EMSA: 20 mM K phosphate pH 7.0, 1 mM DTT, 5 mM MgCl2, 50 mM KCl, 15 ug/mL BSA, 50 ug/mL herring sperm DNA, 5% glycerol, 0.1% Tween20, DNA 0.025 pM, 37 C …
T5 sequence: T2 sequence

[4] = effector increasing DNA binding
[5] = EMSA: 20 mM K phosphate pH 7.0, 1 mM DTT, 5 mM MgCl2, 50 mM KCl, 15 ug/mL BSA, 50 ug/mL herring sperm DNA, 5% glycerol, 0.1% Tween20, DNA 0.025 pM, 37 C …

BhcR (Paracoccus denitrificans DSM 413), sequence (A1B8Z4 whole entry): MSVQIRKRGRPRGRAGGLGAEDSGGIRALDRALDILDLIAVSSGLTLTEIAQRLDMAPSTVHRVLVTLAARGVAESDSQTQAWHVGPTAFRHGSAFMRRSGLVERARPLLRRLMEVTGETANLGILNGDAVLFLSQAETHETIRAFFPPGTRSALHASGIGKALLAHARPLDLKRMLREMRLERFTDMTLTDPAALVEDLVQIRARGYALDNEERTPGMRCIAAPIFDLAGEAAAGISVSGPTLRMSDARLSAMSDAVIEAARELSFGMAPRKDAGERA
T1 sequence (A1B8Z4 whole entry): as above

Molecule: O=CC(=O)O [glyoxylate]
- EMSA of Pbhc DNA-BhcR complex with effector (BhcR; effector decreasing DNA binding): the interaction of BhcR with Pbhc was negatively affected by increasing concentrations of glyoxylate

Molecule: CC(=O)C(=O)O [pyruvate]
- EMSA of Pbhc DNA-BhcR complex with effector (BhcR; [4]): the DNA-binding interaction was positively affected by the presence of pyruvate or oxalate

Molecule: [6FAM]-Pglc
- Kd ([1]; 10 nM DNA): 225 nM

Molecule: GCTCTCCTCCCTTGGTCGAACGGCAGGCCCGTGTCCTGCCCTGCATTCTTGGTATAATTTTCAGACCACATTAGTCAATCGGTATTTTTCTGGACCGACACGCCCGTCCTGTGCTTACATGGCAGGGATCCGACAACCGCATGAGCGCCC (double strand) [[6FAM]-Pglc]
- Kd [1, 5]: 225 nM
- binding [1, 5]: binds

Molecule: O=C(O)C(=O)O [oxalate]
- EMSA of Pbhc DNA-BhcR complex with effector (BhcR; [4]): the DNA-binding interaction was positively affected by the presence of pyruvate or oxalate

Molecule: GGAATGAAGATCGGGTTCTGGCTGGTCATGGCAATTCCTCCTGCGCTTGTGGACCAAGCTACGTTTTGCTGTCCATTGATGCAATTTTTCTGAAAAATATTTCGCAATCGCGGAAAAATGACCTAAAGTGTCGTGGAATCAGATCGTTGCTCTTTTCCAAAGCCAAAGAGTGATTTTCAACAAACTCAGAAAGTTGTCGAAAGGAAAAATTGAATGTCGGTTCAAATCCGCAAAAGGG (double strand) [Pbhc 238 bp]
- binding [2]: binds

Molecule: O=C(O)CO [glycolate]
- fluorescence polarization, effector titration of 6FAM-Pglc-MGlcR complex (MGlcR): Titration of the Pglc-MGlcR complex with increasing concentrations of glycolate demonstrated a notable decrease in binding
- EMSA of Pglc DNA-GlcR complex with effector (GlcR): DNA binding was decreased in the presence of glycolate

Molecule: CAAGCTCTCCTCCCTTGGTCGAACGGCAGGCCCGTGTCCTGCCCTGCATTCTTGGTATAATTTTCAGACCACATTAGTCAATCGGTATTTTTCTGGACCGACACGCCCGTCCTGTGCTTACATGGCAGGGATCCGACAACCGCATGAGCGCCCATG (double strand) [Pglc 156 bp]
- binding [3]: binds
